# Experimental data: ChEMBL document CHEMBL3526061, “Glucuronidation of edaravone by human liver and kidney microsomes: biphasic kinetics and identification of UGT1A9 as the major UDP-glucuronosyltransferase isoform” (Drug Metab Dispos, 2012)
# Key:
# Format in all cases: ADME
# [1] = target: T1, UDP-glucuronosyltransferase 1A9 (Homo sapiens, UniProt O60656); test: Activity of human recombinant UGT1A9 expressed in insect cells assessed as intrinsic clearance for enzyme mediated glucuronidation per mg protein by LC-MS/MS method
# T1 sequence (O60656 whole entry): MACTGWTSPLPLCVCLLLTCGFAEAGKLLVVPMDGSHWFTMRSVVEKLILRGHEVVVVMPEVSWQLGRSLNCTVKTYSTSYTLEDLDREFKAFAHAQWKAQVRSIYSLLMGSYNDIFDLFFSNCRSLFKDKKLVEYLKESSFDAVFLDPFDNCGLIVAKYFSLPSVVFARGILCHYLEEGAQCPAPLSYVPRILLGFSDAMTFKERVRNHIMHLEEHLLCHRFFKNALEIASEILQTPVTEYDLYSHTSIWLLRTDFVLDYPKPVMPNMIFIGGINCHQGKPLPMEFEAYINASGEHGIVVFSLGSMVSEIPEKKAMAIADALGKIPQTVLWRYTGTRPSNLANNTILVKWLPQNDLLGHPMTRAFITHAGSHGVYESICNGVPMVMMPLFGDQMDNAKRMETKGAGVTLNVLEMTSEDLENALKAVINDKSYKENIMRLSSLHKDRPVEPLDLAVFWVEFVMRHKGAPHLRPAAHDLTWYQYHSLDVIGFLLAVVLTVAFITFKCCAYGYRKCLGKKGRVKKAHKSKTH
# [2] = target: T2, UDP-glucuronosyltransferase 1A8 (Homo sapiens, UniProt Q9HAW9); test: Activity of human recombinant UGT1A8 expressed in insect cells assessed as enzyme mediated glucuronidation at 12.5 uM by LC-MS/MS method
# T2 sequence (Q9HAW9 whole entry): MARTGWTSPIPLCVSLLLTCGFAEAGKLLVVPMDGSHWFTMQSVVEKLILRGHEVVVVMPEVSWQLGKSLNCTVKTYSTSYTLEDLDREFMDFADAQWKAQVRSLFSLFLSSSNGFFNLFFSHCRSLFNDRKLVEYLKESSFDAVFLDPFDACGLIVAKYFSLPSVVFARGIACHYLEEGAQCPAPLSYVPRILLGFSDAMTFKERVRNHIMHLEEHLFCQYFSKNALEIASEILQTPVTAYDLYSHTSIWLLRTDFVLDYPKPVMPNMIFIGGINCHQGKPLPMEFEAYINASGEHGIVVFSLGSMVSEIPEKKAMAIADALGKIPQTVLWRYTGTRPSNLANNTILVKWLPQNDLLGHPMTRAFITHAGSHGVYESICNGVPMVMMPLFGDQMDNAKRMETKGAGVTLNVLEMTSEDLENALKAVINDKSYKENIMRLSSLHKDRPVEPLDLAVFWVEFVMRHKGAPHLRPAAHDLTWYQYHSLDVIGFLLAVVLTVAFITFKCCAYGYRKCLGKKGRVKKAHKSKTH
# [3] = target: T1, UDP-glucuronosyltransferase 1A9; test: Activity of human recombinant UGT1A9 expressed in insect cells assessed as enzyme mediated glucuronidation at 12.5 uM by LC-MS/MS method
# [4] = target: T3, UDP-glucuronosyltransferase 1A6 (Homo sapiens, UniProt P19224); test: Activity of human recombinant UGT1A6 expressed in insect cells assessed as enzyme mediated glucuronidation at 500 uM by LC-MS/MS method
# T3 sequence (P19224 whole entry): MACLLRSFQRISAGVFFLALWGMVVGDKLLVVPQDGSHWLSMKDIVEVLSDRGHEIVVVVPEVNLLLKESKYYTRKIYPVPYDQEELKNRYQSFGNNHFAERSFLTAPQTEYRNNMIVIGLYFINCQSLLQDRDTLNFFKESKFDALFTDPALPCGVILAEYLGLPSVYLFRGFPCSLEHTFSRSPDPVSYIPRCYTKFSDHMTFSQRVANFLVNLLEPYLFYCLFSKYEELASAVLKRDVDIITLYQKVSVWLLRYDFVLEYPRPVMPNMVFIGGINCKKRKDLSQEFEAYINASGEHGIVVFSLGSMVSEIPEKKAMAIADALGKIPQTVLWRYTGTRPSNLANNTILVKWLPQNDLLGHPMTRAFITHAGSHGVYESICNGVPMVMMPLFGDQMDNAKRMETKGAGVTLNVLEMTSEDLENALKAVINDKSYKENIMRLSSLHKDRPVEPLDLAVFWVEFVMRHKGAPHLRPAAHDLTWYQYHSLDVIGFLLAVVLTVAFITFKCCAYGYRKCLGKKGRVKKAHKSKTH
# [5] = target: T4, UDP-glucuronosyltransferase 2B7 (Homo sapiens, UniProt P16662); test: Activity of human recombinant UGT2B7 expressed in insect cells assessed as enzyme mediated glucuronidation in presence of […] naloxone by LC-MS/MS method
# T4 sequence (P16662 whole entry): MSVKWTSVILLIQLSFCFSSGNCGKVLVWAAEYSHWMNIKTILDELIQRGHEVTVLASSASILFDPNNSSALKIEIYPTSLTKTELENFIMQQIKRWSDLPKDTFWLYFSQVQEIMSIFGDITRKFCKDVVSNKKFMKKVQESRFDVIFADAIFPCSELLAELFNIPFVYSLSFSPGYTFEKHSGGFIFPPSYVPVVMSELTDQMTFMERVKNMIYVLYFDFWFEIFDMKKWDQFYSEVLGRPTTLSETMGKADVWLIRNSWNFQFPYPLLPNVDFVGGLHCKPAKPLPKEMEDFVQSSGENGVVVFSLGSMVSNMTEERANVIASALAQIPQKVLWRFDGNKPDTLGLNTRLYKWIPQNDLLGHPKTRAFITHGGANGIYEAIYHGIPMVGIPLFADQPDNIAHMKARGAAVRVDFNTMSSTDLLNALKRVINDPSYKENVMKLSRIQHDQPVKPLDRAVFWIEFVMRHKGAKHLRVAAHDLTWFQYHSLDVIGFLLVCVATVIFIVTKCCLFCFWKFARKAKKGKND
# Liver microsome = test: Drug metabolism in human liver microsomes assessed as intrinsic clearance for drug glucuronidation per mg tissue in absence of BSA by LC-MS/MS method
# [6] = target: T3, UDP-glucuronosyltransferase 1A6; test: Activity of human recombinant UGT1A6 expressed in insect cells assessed as intrinsic clearance for enzyme mediated glucuronidation per mg protein by LC-MS/MS method
smiles,measurement,setting,value
CC1=NN(c2ccccc2)C(=O)C1 [EDARAVONE],CL(high),[1],42.4 µL/min/mg
same,CL(low),[1],0.8 µL/min/mg
same,Drug metabolism,[2],metabolite_detected
same,Drug metabolism,[3],metabolite_detected
same,Drug metabolism,[4],metabolite_detected
same,Drug metabolism,[5],metabolite_not_detected
same,CLHH,Liver microsome,8.4 µL/min/g
same,CLHL,Liver microsome,1.3 µL/min/mg
same,clearance,[6],1.6 µL/min/mg
